Measurements as given in ChEMBL document CHEMBL4393657, “Tetrazole hybrids and their antifungal activities” (2019).
Converted amounts (≈) assume the structure as drawn.

Assays:
Format in all cases: functional
Candida albicans [1] = experiment: Antifungal activity against Candida albicans ATCC 885653 assessed as inhibition zone at 100 ug/ml incubated for 48 to 72 hrs by agar-diffusion method; settings: read-out: IZ
Candida albicans [2] = experiment: Antifungal activity against Candida albicans assessed as inhibition zone at 125 ug/ml by disk diffusion method; settings: read-out: IZ
Candida albicans [3] = experiment: Antifungal activity against Candida albicans assessed as reduction in fungal cell growth incubated for 48 hrs by broth microdilution susceptibility method
Aspergillus niger [4] = experiment: Antifungal activity against Aspergillus niger assessed as reduction in fungal cell growth incubated for 48 hrs by broth microdilution susceptibility method
Candida albicans [5] = experiment: Antifungal activity against Candida albicans TA
Candida albicans [6] = experiment: In vivo antifungal activity against Candida albicans TA infected in CDF-1 mouse dosed orally assessed as survival of mouse; settings: po
Candida albicans [7] = experiment: Antifungal activity against Candida albicans NCCS 3471 assessed as inhibition zone at 50 ug/ml incubated for 3 to 4 days by disk diffusion method; settings: read-out: IZ
Aspergillus fumigatus = experiment: Antifungal activity against Aspergillus fumigatus NCIM 902 assessed as inhibition zone at 50 ug/ml incubated for 3 to 4 days by disk diffusion method; settings: read-out: IZ
Candida albicans [8] = experiment: Antifungal activity against Candida albicans assessed as inhibition zone at 250 ug/ml; settings: read-out: IZ
Aspergillus niger [9] = experiment: Antifungal activity against Aspergillus niger assessed as inhibition zone at 250 ug/ml; settings: read-out: IZ

CNCCSc1nc2ccccc2c2nnnn12
zone of inhibition at 100 µg/mL (Candida albicans [1]): 6 to 22 mm

O=[N+]([O-])c1ccc(/N=C/c2cc3cc(-c4nc5ccccc5[nH]4)ccc3n3nnnc23)cc1
zone of inhibition at 125 µg/mL (Candida albicans [2]): 7 to 12 mm

COc1ccc(/N=C/c2cc3cc(-c4nc5ccccc5[nH]4)ccc3n3nnnc23)cc1
zone of inhibition at 125 µg/mL (Candida albicans [2]): 7 to 12 mm

COc1ccc(-c2nn[se]c2-n2nnc(-c3ccccc3Cl)n2)cc1
MIC (Candida albicans [3]): 100 to 400 µg/mL (≈ 239 to 958 µM)
MIC (Aspergillus niger [4]): 100 to 400 µg/mL (≈ 239 to 958 µM)

C(=N\c1ccccc1)/c1cc2cc(-c3nc4ccccc4[nH]3)ccc2n2nnnc12
zone of inhibition at 125 µg/mL (Candida albicans [2]): 7 to 12 mm

C[C@@H](n1cnnn1)[C@](O)(Cn1cncn1)c1ccc(Cl)cc1
MIC (Candida albicans [5]): 12.5 to 100 µg/mL (≈ 39.1 to 313 µM)
ED50 (Candida albicans [6]): 0.18 to 1.54 mg/kg

Clc1ccccc1-n1nnnc1-c1cccnc1
zone of inhibition at 50 µg/mL (Candida albicans [7]): 17 mm
zone of inhibition at 50 µg/mL (Aspergillus fumigatus): 15 mm

Cc1ccc(/N=C/c2cc3cc(-c4nc5ccccc5[nH]4)ccc3n3nnnc23)cc1
zone of inhibition at 125 µg/mL (Candida albicans [2]): 7 to 12 mm

Oc1ccc(-c2nnnn2-c2nc3ccccc3s2)cc1O
zone of inhibition at 250 µg/mL (Candida albicans [8]): 13 to 23 mm
zone of inhibition at 250 µg/mL (Aspergillus niger [9]): 13 to 23 mm

Clc1cccc(-n2nnnc2-c2cccnc2)c1Cl
zone of inhibition at 50 µg/mL (Candida albicans [7]): 16 mm
zone of inhibition at 50 µg/mL (Aspergillus fumigatus): 18 mm

C[C@@H](n1ncnn1)[C@](O)(Cn1cncn1)c1ccc(Cl)cc1
MIC (Candida albicans [5]): 100 µg/mL (≈ 313 µM)

NCCSc1nc2ccccc2c2nnnn12
zone of inhibition at 100 µg/mL (Candida albicans [1]): 6 to 22 mm

Oc1ccc(/N=C/c2cc3cc(-c4nc5ccccc5[nH]4)ccc3n3nnnc23)cc1
zone of inhibition at 125 µg/mL (Candida albicans [2]): 7 to 12 mm

CN(C)c1ccc(-c2nnnn2-c2nc3ccccc3s2)cc1
zone of inhibition at 250 µg/mL (Candida albicans [8]): 13 to 23 mm
zone of inhibition at 250 µg/mL (Aspergillus niger [9]): 13 to 23 mm

C[C@@H](n1ncnn1)[C@](O)(Cn1cncn1)c1ccc(F)cc1F
MIC (Candida albicans [5]): 100 µg/mL (≈ 311 µM)

C[C@@H](n1ncnn1)[C@](O)(Cn1cncn1)c1ccc(F)cc1
MIC (Candida albicans [5]): 100 µg/mL (≈ 330 µM)

Oc1cccc(-c2nnnn2-c2nc3ccccc3s2)c1
zone of inhibition at 250 µg/mL (Candida albicans [8]): 13 to 23 mm
zone of inhibition at 250 µg/mL (Aspergillus niger [9]): 13 to 23 mm

Clc1ccc(-c2nn[se]c2-n2nnc(-c3ccccc3Cl)n2)cc1
MIC (Candida albicans [3]): 6.25 µg/mL (≈ 14.8 µM)
MIC (Aspergillus niger [4]): 6.25 µg/mL (≈ 14.8 µM)

C[C@@H](n1ncnn1)[C@](O)(Cn1cncn1)c1ccccc1F
MIC (Candida albicans [5]): 100 µg/mL (≈ 330 µM)

O=C(CSc1nc2ccccc2c2nnnn12)c1ccccc1
zone of inhibition at 100 µg/mL (Candida albicans [1]): 6 to 22 mm

O=[N+]([O-])c1cccc(-c2nnnn2-c2nc3ccccc3s2)c1
zone of inhibition at 250 µg/mL (Candida albicans [8]): 13 to 23 mm
zone of inhibition at 250 µg/mL (Aspergillus niger [9]): 13 to 23 mm

C[C@@H](n1nnn(-c2ccc(C(F)(F)F)cc2)c1=O)[C@](O)(Cn1cncn1)c1ccccc1
ED50 (Candida albicans [6]): 0.71 to 2 mg/kg

COc1ccc(OC)c(C(=O)CSc2nc3ccccc3c3nnnn23)c1
zone of inhibition at 100 µg/mL (Candida albicans [1]): 22 mm

O=C(O)c1cccc(/N=C/c2cc3cc(-c4nc5ccccc5[nH]4)ccc3n3nnnc23)c1
zone of inhibition at 125 µg/mL (Candida albicans [2]): 7 to 12 mm

O=[N+]([O-])c1ccc(-c2nnnn2-c2nc3ccccc3s2)cc1
zone of inhibition at 250 µg/mL (Candida albicans [8]): 13 to 23 mm
zone of inhibition at 250 µg/mL (Aspergillus niger [9]): 13 to 23 mm

COc1ccc(C(=O)CSc2nc3ccccc3c3nnnn23)cc1
zone of inhibition at 100 µg/mL (Candida albicans [1]): 6 to 22 mm

Clc1ccc(/N=C/c2cc3cc(-c4nc5ccccc5[nH]4)ccc3n3nnnc23)cc1
zone of inhibition at 125 µg/mL (Candida albicans [2]): 7 to 12 mm

C[C@@H](n1cnnn1)[C@](O)(Cn1cncn1)c1ccccc1F
MIC (Candida albicans [5]): 12.5 to 100 µg/mL (≈ 41.2 to 330 µM)
ED50 (Candida albicans [6]): 0.18 to 1.54 mg/kg

COc1ccc(-c2nn[se]c2-n2nnc(-c3ccc(C)cc3)n2)cc1
MIC (Candida albicans [3]): 100 to 400 µg/mL (≈ 252 to 1010 µM)
MIC (Aspergillus niger [4]): 100 to 400 µg/mL (≈ 252 to 1010 µM)

C[C@@H](n1nnn(-c2ccc(F)cc2)c1=O)[C@](O)(Cn1cncn1)c1ccccc1
ED50 (Candida albicans [6]): 0.71 to 2 mg/kg

Clc1ccc(-n2nnnc2-c2cccnc2)cc1
zone of inhibition at 50 µg/mL (Candida albicans [7]): 10 to 19 mm
zone of inhibition at 50 µg/mL (Aspergillus fumigatus): 10 to 19 mm

C[C@@H](n1nnn(-c2ccc(OCC(F)(F)F)cc2)c1=O)[C@](O)(Cn1cncn1)c1ccccc1
ED50 (Candida albicans [6]): 0.71 to 2 mg/kg

COc1ccc(-c2nn[se]c2-n2nnc(-c3ccccc3)n2)cc1
MIC (Candida albicans [3]): 100 to 400 µg/mL (≈ 261 to 1040 µM)
MIC (Aspergillus niger [4]): 100 to 400 µg/mL (≈ 261 to 1040 µM)

Cc1ccc(-c2nnn(-c3[se]nnc3-c3ccc(Cl)cc3)n2)cc1
MIC (Candida albicans [3]): 100 to 400 µg/mL (≈ 249 to 996 µM)
MIC (Aspergillus niger [4]): 100 to 400 µg/mL (≈ 249 to 996 µM)

Cc1ccc(-c2nnnn2-c2nc3ccccc3s2)cc1
zone of inhibition at 250 µg/mL (Candida albicans [8]): 13 to 23 mm
zone of inhibition at 250 µg/mL (Aspergillus niger [9]): 13 to 23 mm

C[C@@H](n1nnn(-c2ccc(OCC(F)(F)C(F)(F)F)cc2)c1=O)[C@](O)(Cn1cncn1)c1ccccc1
ED50 (Candida albicans [6]): 0.71 to 2 mg/kg

S=C1N=C(c2ccc(Br)cc2)CC(c2cc3ccccc3n3nnnc23)N1 (stereo not given)
MIC (Candida albicans [3]): ≥ 100 µg/mL

Brc1ccc(-n2nnnc2-c2cccnc2)cc1
zone of inhibition at 50 µg/mL (Candida albicans [7]): 19 mm
zone of inhibition at 50 µg/mL (Aspergillus fumigatus): 17 mm

COc1ccc(-c2nn[se]c2-n2nnc(-c3ccc(Cl)cc3)n2)cc1
MIC (Candida albicans [3]): 100 to 400 µg/mL (≈ 239 to 958 µM)
MIC (Aspergillus niger [4]): 100 to 400 µg/mL (≈ 239 to 958 µM)

O=[N+]([O-])c1ccccc1-n1nnnc1-c1cccnc1
zone of inhibition at 50 µg/mL (Candida albicans [7]): 10 to 19 mm
zone of inhibition at 50 µg/mL (Aspergillus fumigatus): 10 to 19 mm

COc1ccc(-n2nnnc2-c2cccnc2)cc1
zone of inhibition at 50 µg/mL (Candida albicans [7]): 10 to 19 mm
zone of inhibition at 50 µg/mL (Aspergillus fumigatus): 10 to 19 mm

C[C@@H](n1nnn(-c2ccc(OC(F)(F)C(F)F)cc2)c1=O)[C@](O)(Cn1cncn1)c1ccccc1
ED50 (Candida albicans [6]): 0.71 to 2 mg/kg

O=[N+]([O-])c1ccc(-n2nnnc2-c2cccnc2)cc1
zone of inhibition at 50 µg/mL (Candida albicans [7]): 10 to 19 mm
zone of inhibition at 50 µg/mL (Aspergillus fumigatus): 10 to 19 mm

CN(C)c1ccc(/C=C2/C(=O)N(/N=C/c3cc4ccccc4n4nnnc34)C(=S)N(c3ccccc3)C2=O)cc1
MIC (Candida albicans [3]): ≥ 100 µg/mL

Clc1ccc(-c2nnn(-c3[se]nnc3-c3ccc(Cl)cc3)n2)cc1
MIC (Candida albicans [3]): 6.25 µg/mL (≈ 14.8 µM)
MIC (Aspergillus niger [4]): 6.25 µg/mL (≈ 14.8 µM)

C[C@@H](n1cnnn1)[C@](O)(Cn1cncn1)c1ccc(F)cc1
MIC (Candida albicans [5]): 12.5 to 100 µg/mL (≈ 41.2 to 330 µM)
ED50 (Candida albicans [6]): 0.18 to 1.54 mg/kg

COc1ccccc1-n1nnnc1-c1cccnc1
zone of inhibition at 50 µg/mL (Candida albicans [7]): 10 to 19 mm
zone of inhibition at 50 µg/mL (Aspergillus fumigatus): 10 to 19 mm

O=C1CC(=O)N(c2ccccc2)C(=S)N1/N=C/c1cc2ccccc2n2nnnc12
MIC (Candida albicans [3]): ≥ 100 µg/mL

Cc1ccc(N2C(=O)/C(=C\c3ccc(N(C)C)cc3)C(=O)N(/N=C/c3cc4ccccc4n4nnnc34)C2=S)cc1
MIC (Candida albicans [3]): ≥ 100 µg/mL

C[C@@H](n1nnn(-c2ccc(OC(F)(F)F)cc2)c1=O)[C@](O)(Cn1cncn1)c1ccccc1
ED50 (Candida albicans [6]): 0.71 to 2 mg/kg

Clc1ccc(-c2nnnn2-c2nc3ccccc3s2)cc1
zone of inhibition at 250 µg/mL (Candida albicans [8]): 13 to 23 mm
zone of inhibition at 250 µg/mL (Aspergillus niger [9]): 13 to 23 mm

COc1cc(-c2nnnn2-c2nc3ccccc3s2)cc(OC)c1OC
zone of inhibition at 250 µg/mL (Candida albicans [8]): 13 to 23 mm
zone of inhibition at 250 µg/mL (Aspergillus niger [9]): 13 to 23 mm

S=C1N=C(c2ccccc2)CC(c2cc3ccccc3n3nnnc23)N1 (stereo not given)
MIC (Candida albicans [3]): ≥ 100 µg/mL

c1ccc(-c2nnnn2-c2nc3ccccc3s2)cc1
zone of inhibition at 250 µg/mL (Candida albicans [8]): 13 to 23 mm
zone of inhibition at 250 µg/mL (Aspergillus niger [9]): 13 to 23 mm

Cc1ccc(-n2nnnc2-c2cccnc2)cc1
zone of inhibition at 50 µg/mL (Candida albicans [7]): 10 to 19 mm
zone of inhibition at 50 µg/mL (Aspergillus fumigatus): 10 to 19 mm

CN(C)c1ccc(/C=C2/C(=O)N(/N=C/c3cc4ccccc4n4nnnc34)C(=S)N(c3ccc(Cl)cc3)C2=O)cc1
MIC (Candida albicans [3]): ≥ 100 µg/mL

C[C@@H](n1nnn(-c2ccc(OCC(F)(F)C(F)F)cc2)c1=O)[C@](O)(Cn1cncn1)c1ccccc1
ED50 (Candida albicans [6]): 0.71 to 2 mg/kg

O=C(O)c1ccc(/N=C/c2cc3cc(-c4nc5ccccc5[nH]4)ccc3n3nnnc23)cc1
zone of inhibition at 125 µg/mL (Candida albicans [2]): 7 to 12 mm

Cc1ccc(N2C(=O)/C(=C\c3ccccc3)C(=O)N(/N=C/c3cc4ccccc4n4nnnc34)C2=S)cc1
MIC (Candida albicans [3]): ≥ 100 µg/mL

Clc1ccc(-c2nn[se]c2-n2nnc(-c3ccccc3)n2)cc1
MIC (Candida albicans [3]): 100 to 400 µg/mL (≈ 258 to 1030 µM)
MIC (Aspergillus niger [4]): 100 to 400 µg/mL (≈ 258 to 1030 µM)

O=C1CC(=O)N(c2ccc(Cl)cc2)C(=S)N1/N=C/c1cc2ccccc2n2nnnc12
MIC (Candida albicans [3]): ≥ 100 µg/mL

Clc1ccccc1C(c1ccccc1)(c1ccccc1)n1ccnc1 [CLOTRIMAZOLE]
MIC (Candida albicans [3]): 12.5 µg/mL (≈ 36.2 µM)

Oc1ccc(-c2nnnn2-c2nc3ccccc3s2)cc1
zone of inhibition at 250 µg/mL (Candida albicans [8]): 13 to 23 mm
zone of inhibition at 250 µg/mL (Aspergillus niger [9]): 13 to 23 mm

c1ccc(-n2nnnc2-c2cccnc2)cc1
zone of inhibition at 50 µg/mL (Candida albicans [7]): 10 to 19 mm
zone of inhibition at 50 µg/mL (Aspergillus fumigatus): 10 to 19 mm
